Measurements from patent US20190388421A1, “NOVEL COMPOUNDS AND PHARMACEUTICAL COMPOSITIONS THEREOF FOR THE TREATMENT OF FIBROSIS” (Galapagos NV, priority 2016, published 2019).

Experiments:
[1] = target: T1, human GPCR sphingosine 1-phosphate receptor 1 (S1PR1) (Homo sapiens, UniProt P21453); assay: S1PR1 selectivity assay (Ca2+ flux, antagonist); type: cell-based; conditions: S1P1 antagonist EC50, CHO cells overexpressing human S1PR1 and Gq protein
T1 construct: host or cells: CHO
Protocol: (§1) After readout of the agonist activity, the plates are incubated for 15 min at 37° C. and 5% CO2. Then, cells are stimulated with 10 μL Sphingosine-1-Phosphate (S1P) (Avanti Polar lipids-860492P) at its EC80 concentration. Intracellular Ca^2+ changes are immediately measured by reading fluorescence during 3 min (FDSS/μCELL reader). The ratio of the maximal fluorescence over the background fluorescence before compound injection is used to determine compound response.
(§2) For EC50 determination, a 10 point dilution series of compounds starting from 23.3 μM and 20 μM highest final concentration for agonist and antagonist respectively, ⅓ dilution was performed.
(§3) The obtained ratio's for agonist and antagonist readout were normalized versus vehicle and EC100 of S1P as controls for agonist mode and versus vehicle and EC80 of S1P for antagonist mode. From these normalized data EC50 of the compounds are derived.
(§4) To evaluate the selectivity of the compounds for S1PR2 over S1PR1 and S1PR5, a similar assay set up as described above for the S1PR2 calcium flux assays was performed: CHO cells stably overexpressing human GPCR sphingosine 1-phosphate receptor 1 and Gq protein (Euroscreen, FAST-0197A) or overexpressing human GPCR sphingosine 1-phosphate receptor 5 and Gq protein were used (Perkin Elmer, ES-593-A). In case of the S1PR5 assay triggering was done with an S1PR5 specific agonist instead of with S1P (Hobson et al., 2015).

[2] = target: T2, human GPCR sphingosine 1-phosphate receptor 5 (S1PR5) (Homo sapiens, UniProt Q9H228); assay: S1PR5 selectivity assay (Ca2+ flux, antagonist, S1PR5 specific agonist trigger); type: cell-based; conditions: S1P5 antagonist EC50, CHO cells overexpressing human S1PR5 and Gq protein
T2 construct: host or cells: CHO
T2 sequence (Q9H228 whole entry): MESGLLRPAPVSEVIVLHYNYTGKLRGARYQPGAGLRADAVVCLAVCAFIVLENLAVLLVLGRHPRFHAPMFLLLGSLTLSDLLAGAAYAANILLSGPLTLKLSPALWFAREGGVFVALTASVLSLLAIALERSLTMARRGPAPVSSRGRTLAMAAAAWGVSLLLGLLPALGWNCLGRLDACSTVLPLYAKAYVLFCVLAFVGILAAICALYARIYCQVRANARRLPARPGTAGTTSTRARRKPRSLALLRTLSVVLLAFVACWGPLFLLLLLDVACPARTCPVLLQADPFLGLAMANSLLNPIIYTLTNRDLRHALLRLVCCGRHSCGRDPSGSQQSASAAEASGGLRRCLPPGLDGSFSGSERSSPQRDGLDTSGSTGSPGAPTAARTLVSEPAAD
Protocol: as §1, §2, §3, §4

S1PR2 = target: T3, S1PR2 (Homo sapiens, UniProt O95136); assay: GTP-γS binding assay ([35S]GTPγS, S1P at EC80, S1PR2 membranes); type: biochemical; conditions: membranes from stable cell line over expressing S1PR2, read-out: S1PR2 EC
T3 construct: expressed in transfected cells
T3 sequence (O95136 whole entry): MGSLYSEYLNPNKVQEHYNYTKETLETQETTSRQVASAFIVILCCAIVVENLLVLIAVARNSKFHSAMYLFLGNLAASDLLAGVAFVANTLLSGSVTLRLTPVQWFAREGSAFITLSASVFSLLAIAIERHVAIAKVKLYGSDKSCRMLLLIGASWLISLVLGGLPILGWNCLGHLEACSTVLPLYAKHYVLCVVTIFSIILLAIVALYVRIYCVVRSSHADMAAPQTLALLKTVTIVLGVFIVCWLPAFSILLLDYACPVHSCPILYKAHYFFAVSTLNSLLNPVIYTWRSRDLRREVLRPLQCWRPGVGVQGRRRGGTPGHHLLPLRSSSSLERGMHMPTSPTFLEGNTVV
Protocol: The following assay can be used for determination of S1PR2 activation. The [^35S] GTPγS assay measures the level of G protein activation following agonist occupation of a GPCR, by determining the binding of the non-hydrolysable analog [^35S] GTPγS to Gα subunits.
The assay is performed in a 96 well plate where the following reagents are added. First 50 μL compound is added into the assay plate, followed by addition of 20 μL S1P at EC80 concentration (concentration which gives 80% of the activity of S1PR2). Then, 30 μL of a mixture consisting of membranes-GTPγS-SpA beads is added [mixture consists of 2.5 μg/well membranes derived from stable cell line over expressing S1PR2 (membranes are pre-incubated with 1 μM GDP for 15 min at 4° C.), 0.1 nM [35S]GTPγS (Perkin Elmer, NEG030) and 0.5 mg/well PVT-WGA SpA beads (Perkin Elmer, RPNQ0001)]. All components are diluted in assay buffer containing 20 mM Tris pH 7.5; 10 mM MgCl2; 100 mM NaCl; 0.1% BSA FAF; 50 ug/ml saponin. After an incubation for 4 h at room temperature, plates are centrifuged at 2000 rpm during 20 min. Plates are read on a Topcount reader (Perkin Elmer) immediately after centrifugation (readout time, 1 min/well).

[3] = target: T4, human GPCR sphingosine 1-phosphate receptor 2 (S1PR2) (Homo sapiens, UniProt O95136); assay: S1P2 antagonist assay (Ca2+ flux, S1P at EC80); type: cell-based; conditions: CHO-S1PR2 cells, highest concentration 20 μM
T4 construct: host or cells: CHO
T4 sequence (O95136 whole entry): as above
Protocol: Triggering of S1PR2 by administration of Sphingosine-1-phosphate leads to a transient increase in intracellular Ca^2+. The Ca^2+ flux assays are measuring the release of Ca^2+ intracellularly by use of a Ca^2+ sensitive fluorescent dye. The assay is firstly run in agonist mode (incubation of compounds alone) to ensure that the Ca^2+ released measured is not caused by the test compound having an agonistic effect. Then the assay is continued in antagonist mode (Sphingosine-1-Phosphate added to incubated medium containing the test compounds).
CHO cells stably overexpressing human GPCR sphingosine 1-phosphate receptor 2 (CHO—S1PR2 Perkin Elmer; ES-594-A) are seeded from a frozen stock in 384 wells sterile microplates (50 μL; 7,500 cells/well) and are incubated overnight at 37° C. and 5% CO2. The next day cells are washed twice with starvation medium (F-12 Ham's medium containing 0.1% BSA (Fatty acid free: FAF)) and left in […] starvation medium for 1 h at 37° C., 5% CO2. After this starvation cells are incubated with […] buffer containing the Ca^2+-sensitive fluorescent dye (0.5 mg Fluo8+125 mg Allura Red in 100 ml of 1% DMSO, in HBSS+20 mM Hepes+5 mM probenecid). The cells are incubated for an additional 1 hour after which 10 μL compounds, diluted in HBSS buffer with 20 mM Hepes and 0.1% BSA (FAF), are added to the cells and intracellular Ca^2+ changes are immediately measured by reading fluorescence during 3 min (FDSS/μCELL reader). The ratio of the maximal fluorescence over the background fluorescence before compound injection is used to determine compound response.
as §1, §2, §3

T1 sequence (P21453 whole entry): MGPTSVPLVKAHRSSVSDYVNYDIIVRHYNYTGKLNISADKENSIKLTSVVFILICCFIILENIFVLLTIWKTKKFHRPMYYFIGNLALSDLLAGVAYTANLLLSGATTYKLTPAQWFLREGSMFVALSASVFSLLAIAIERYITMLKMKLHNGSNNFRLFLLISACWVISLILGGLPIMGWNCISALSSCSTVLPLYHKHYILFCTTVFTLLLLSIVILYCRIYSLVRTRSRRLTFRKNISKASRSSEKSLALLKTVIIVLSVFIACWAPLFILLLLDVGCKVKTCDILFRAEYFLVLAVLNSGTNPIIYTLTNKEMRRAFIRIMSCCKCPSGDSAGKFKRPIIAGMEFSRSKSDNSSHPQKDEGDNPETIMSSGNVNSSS

Compound | EC50 [1] | EC50 [2] | EC50 (S1PR2) | EC50 [3]
CCOc1cc(NC(=O)NCc2cc(C)c(N3CC(C)O[C@H](C)C3)nn2)cc(C(F)(F)F)n1 (stereo in doubt) [Compound 100, 1-[[6-[(2R,6S)-2,6-dimethyl-morpholin-4-yl]-5-methyl-pyridazin-3-yl]methyl]-3-(2-ethoxy-6-(trifluoromethyl)-4-pyridyl]urea] | 6610 nM | 2480 nM | – | –
Cc1cc(CNC(=O)Nc2cc(Cl)cc(Cl)c2)nnc1-c1cn(C)nc1C(F)(F)F [Compound 6, 1-(3,5-dichlorophenyl)-3-[[5-methyl-6-[1-methyl-3-(trifluoromethyl)pyrazol-4-yl]pyridazin-3-yl]methyl]urea] | – | – | 50.2 nM | 16.9 nM
Cc1cc(CNC(=O)Nc2cnc(OCC(F)F)c(C(F)(F)F)c2)nnc1-c1cn(C)nc1C(F)(F)F [Compound 7, 1-[6-(2,2-difluoroethoxy)-5-(trifluoromethyl)-3-pyridyl]-3-[[5-methyl-6-[1-methyl-3-(trifluoromethyl)pyrazol-4-yl]pyridazin-3-yl]methyl]urea] | ≥ 19800 nM | ≥ 19800 nM | 330 nM | 17.8 nM
Cc1cc(CNC(=O)Nc2cnc(OCC3CC3)c(C(F)(F)F)c2)nnc1-c1cn(C)nc1C(F)(F)F [Compound 11, 1-[6-cyclopropyl-methoxy-5-(trifluoromethyl)-3-pyridyl]-3-[[5-methyl-6-[1-methyl-3-(trifluoromethyl)pyrazol-4-yl]pyridazin-3-yl]methyl]urea] | – | – | 716 nM | 49.6 nM
Cc1cc(CNC(=O)Nc2cnc(OCC(F)(F)F)c(C(F)(F)F)c2)nnc1-c1cn(C)nc1C(F)(F)F [Compound 12, 1-[[5-methyl-6-[1-methyl-3-(trifluoromethyl)pyrazol-4-yl]pyridazin-3-yl]methyl]-3-[6-(2,2,2-trifluoroethoxy)-5-(trifluoromethyl)-3-pyridyl]urea] | – | – | 590 nM | 11.7 nM
Cc1cc(CNC(=O)Nc2cnc(OCC3CC3)c(Cl)c2)nnc1-c1cn(C)nc1C(F)(F)F [Compound 13, 1-[5-chloro-6-(cyclopropyl-methoxy)-3-pyridyl]-3-[[5-methyl-6-[1-methyl-3-(trifluoromethyl)pyrazol-4-yl]pyridazin-3-yl]methyl]urea] | – | – | 1120 nM | 40.3 nM
Cc1cc(CNC(=O)Nc2cc(Cl)nc(OCC(F)(F)F)c2)nnc1-c1cn(C)nc1C(F)(F)F [Compound 14, 1-[2-chloro-6-(2,2,2-trifluoroethoxy)-4-pyridyl]-3-[[5-methyl-6-[1-methyl-3-(trifluoromethyl)pyrazol-4-yl]pyridazin-3-yl]methyl]urea] | – | – | 225 nM | 24.2 nM
Cc1cc(CNC(=O)Nc2cc(OCC(F)F)nc(C(F)(F)F)c2)nnc1-c1cn(C)nc1C(F)(F)F [Compound 19, 1-[2-(2,2-difluoroethoxy)-6-(trifluoromethyl)-4-pyridyl]-3-[[5-methyl-6-[1-methyl-3-(trifluoromethyl)pyrazol-4-yl]pyridazin-3-yl]methyl]urea] | – | – | 88.7 nM | 17.1 nM
Cc1cc(CNC(=O)Nc2cc(OCC(F)F)nc(C3CC3)c2)nnc1-c1cn(C)nc1C(F)(F)F [Compound 29, 1-[2-cyclopropyl-6-(2,2-difluoroethoxy)-4-pyridyl]-3-[[5-methyl-6-[1-methyl-3-(trifluoromethyl)pyrazol-4-yl]pyridazin-3-yl]methyl]urea] | – | – | 275 nM | 27.3 nM
CCOc1cc(NC(=O)NCc2cc(C)c(-c3cn(C)nc3C(F)(F)F)nn2)nc(OCC)n1 [Compound 31, 1-(2,6-diethoxy-pyrimidin-4-yl)-3-[[5-methyl-6-[1-methyl-3-(trifluoromethyl)pyrazol-4-yl]pyridazin-3-yl]methyl]urea] | – | – | 1650 nM | 3140 nM
Cc1cc(CNC(=O)Nc2cc(Cl)c(F)c(Cl)c2)nnc1-c1cn(C)nc1C(F)(F)F [Compound 32, 1-(3,5-dichloro-4-fluoro-phenyl)-3-[[5-methyl-6-[1-methyl-3-(trifluoromethyl)pyrazol-4-yl]pyridazin-3-yl]methyl]urea] | – | – | 164 nM | 11.1 nM
Cc1cc(CNC(=O)Nc2cc(OCC3CC3(F)F)nc(C(F)(F)F)c2)nnc1-c1cn(C)nc1C(F)(F)F (centres unmarked) [Compound 33, 1-[2-[(2,2-difluoro-cyclopropyl)methoxy]-6-(trifluoromethyl)-4-pyridyl]-3-[[5-methyl-6-[1-methyl-3-(trifluoromethyl)pyrazol-4-yl]pyridazin-3-yl]methyl]urea] | – | – | 164 nM | 37.1 nM
Cc1cc(CNC(=O)Nc2cc(OCC3CCOC3)nc(C(F)(F)F)c2)nnc1-c1cn(C)nc1C(F)(F)F (centres unmarked) [Compound 36] | – | – | 1800 nM | 791 nM
CCOc1nc(C(F)(F)F)cc(NC(=O)NCc2cc(C)c(-c3cn(C)nc3C(F)(F)F)nn2)c1Br [Compound 49, 1-[3-bromo-2-ethoxy-6-(trifluoromethyl)-4-pyridyl]-3-[[5-methyl-6-[1-methyl-3-(trifluoromethyl)pyrazol-4-yl]pyridazin-3-yl]methyl]urea] | – | – | – | 11.5 nM
Cc1cc(CNC(=O)Nc2cnc(OCC(F)F)c(Cl)c2)nnc1N1CC(C)OC(C)C1 (centres unmarked) [Compound 84, 1-[5-chloro-6-(2,2-difluoroethoxy)-3-pyridyl]-3-[[6-(2,6-dimethyl-morpholin-4-yl)-5-methyl-pyridazin-3-yl]methyl]urea] | – | – | – | 6510 nM
CCOc1ncc(NC(=O)NCc2cc(C)c(N3CC(C)OC(C)C3)nn2)cc1Cl (centres unmarked) [Compound 86, 1-(5-chloro-6-ethoxy-3-pyridyl)-3-[[6-(2,6-dimethyl-morpholin-4-yl)-5-methyl-pyridazin-3-yl]methyl]urea] | – | – | – | 1360 nM
Cc1cc(CNC(=O)Nc2cnc(OCC3CC3)c(Cl)c2)nnc1N1CC(C)OC(C)C1 (centres unmarked) [Compound 88, 1-[5-chloro-6-(cyclopropyl-methoxy)-3-pyridyl]-3-[[6-(2,6-dimethyl-morpholin-4-yl)-5-methyl-pyridazin-3-yl]methyl]urea] | – | – | – | 4510 nM
CCOc1nc(C)cc(NC(=O)NCc2cc(C)c(N3C[C@@H](C)O[C@@H](C)C3)nn2)c1C [Compound 95, 1-[[6-[(2R,6S)-2,6-dimethyl-morpholin-4-yl]-5-methyl-pyridazin-3-yl]methyl]-3-(2-ethoxy-3,6-dimethyl-4-pyridyl)urea] | 6610 nM | 809 nM | – | –
CCOc1cc(N[14C](=O)NCc2cc(C)c(-c3cn(C)nc3C(F)(F)F)nn2)cc(C(F)(F)F)n1 [Compound 98, 1-(2-Ethoxy-6-trifluoromethyl-pyridin-4-yl)-3-[5-methyl-6-(1-methyl-3-trifluoromethyl-1H-pyrazol-4-yl)-pyridazin-3-ylmethyl]-C14 urea] | – | – | 16300 nM | –
